The test concerns the target T1, human chemokine receptor CCR3 (Homo sapiens, UniProt P51677).
T1 construct: expressed in transfected cells; host or cells: K562 cell line (hCCR3-C1 cells), membrane preparation
T1 sequence (P51677 1-355): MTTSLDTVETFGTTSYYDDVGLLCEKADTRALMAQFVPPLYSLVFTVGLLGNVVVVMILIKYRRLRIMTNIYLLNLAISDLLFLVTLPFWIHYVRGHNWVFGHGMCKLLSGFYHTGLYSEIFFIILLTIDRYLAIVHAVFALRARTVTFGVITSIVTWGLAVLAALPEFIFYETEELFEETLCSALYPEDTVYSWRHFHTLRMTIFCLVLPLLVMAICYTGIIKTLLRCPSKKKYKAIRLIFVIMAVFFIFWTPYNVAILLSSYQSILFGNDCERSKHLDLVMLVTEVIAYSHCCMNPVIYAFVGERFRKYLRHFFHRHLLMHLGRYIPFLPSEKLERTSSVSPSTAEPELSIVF
In words: CCR3 receptor binding assay (SPA, 125I-eotaxin-1 displacement, hCCR3-C1 K562 cell membranes). Particulars: human Eotaxin-1 at human CCR3-Rezeptor; for inhibition at 1 µM: 1 μM test compound, read-out: CCR3 % inh @ 1 μM; for Ki: dose range 0.1 to 10000 nM. As for the experimental part:
The CCR3 receptor binding test is based on a K562 cell line (leukemia myelogenic blast cells) transfected with the human chemokine receptor CCR3 (hCCR3-C1 cells). The cell membranes were prepared by disrupting the hCCR3-C1 cells by […]. The preparation was centrifuged at 400 g 4° C. for 30 min. The supernatant was transferred into fresh tubes followed by a second centrifugation at 48000 g, 4° C. for 1 h. The membranes were re-suspended in the SPA incubation buffer (25 mM HEPES, 25 mM MgCl2 6×H2O, 1 mM CaCl2 2×H2O) without bovine serum albumin and homogenized by passing through a single use needle (Terumo, 23Gx1″). The membranes were stored in aliquots at −80° C.
The CCR3 receptor binding assay was performed in a Scintillation Proximity Assay (SPA) design with the radioligand recombinant human ^125Iodine-eotaxin-1. Cell membranes of hCCR3 C1 cells were again homogenized by passing through a single use needle (Terumo, 23Gx1″) and diluted in SPA incubation buffer in suitable concentrations (0.5-10 μg protein/well) in 96 well microtiter plates (1450-514, Perkin Elmer). The SPA assay was set up in the SPA incubation buffer with a final volume of 200 μl and final concentration of 25 mM HEPES, 25 mM MgCl2 6×H2O, 1 mM CaCl2 2×H2O and 0.1% bovine serum albumin. The SPA assay mixture contained 60 μl of the membrane suspension, 80 μl of Wheat Germ Agglutinin coated PVT beads (organic scintillator, GE Healthcare, RPNQ-0001) 0.2 mg/well), 40 μl of recombinant human ^125Jodine-eotaxin-1 (Biotrend), diluted in SPA buffer to a final concentration of 30.000 dpm per well, and 20 μl of the test compound (dissolved in DMSO dilutions). The SPA assay mixture was incubated for 2 h at room temperature. Bound radioactivity was determined with a scintillation counter (Micro Beta “Trilux”, Wallac). Included were controls for total binding (no displacer added, Bo) and non-specific binding (NSB) by adding unlabelled recombinant human Eotaxin-1 (Biotrend, Cat #300-21) or a reference compound.
Determination of the affinity of a test compound was calculated by subtraction of the non-specific binding (NSB) from the total binding (Bo) or the binding in the presence of the test compound (B) at a given compound concentration. […] The Bo-NSB value was set to 0% inhibition.
% inhibition and Ki values are (human Eotaxin-1 at human CCR3-Rezeptor): […]

In general, Ki refers to a dissociation constant, usually derived from enzyme kinetics or from competition with a known ligand. As to `CNC(=O)c1cccc(NC(=O)[C@H]2CCC(=O)N2C2CC3CCC(C2)N3Cc2ccc(Cl)c(C)c2)c1` (stereo partly drawn) [Example 84], the inhibition at 1 µM turned out to be 77% and the affinity, expressed as Ki, was 232 nM.

Consider `Cc1cc(CN2C3CCC2CC(N2C(=O)CC[C@@H]2C(=O)Nc2cc(C4CC4)nn2C)C3)ccc1Cl` (stereo partly drawn) [Example 85], for which the inhibition at 1 µM turned out to be 68% and affinity was put at a Ki of 350 nM.

As to `Cc1nccc(-c2cccc(NC(=O)[C@H]3CCC(=O)N3C3CC4CCC(C3)N4Cc3ccc(Cl)c(C)c3)c2)n1` (stereo partly drawn) [Example 86], the inhibition at 1 µM stood at 65% and affinity was put at a Ki of 419 nM.

Turning to `CCn1cc(NC(=O)[C@H]2CCC(=O)N2C2CCN(Cc3ccc(Cl)c(C)c3)CC2)cc1C(=O)OC` [Example 91], the inhibition at 1 µM amounted to 98% and the affinity, expressed as Ki, was 18 nM.

For `CCOC(=O)c1cc(NC(=O)[C@H]2CCC(=O)N2C2CCN(Cc3ccc(Cl)c(C)c3)CC2)no1` [Example 93], the inhibition at 1 µM amounted to 95% and the affinity, expressed as Ki, was 29 nM.

Consider `COC(=O)c1cc(NC(=O)[C@H]2CCC(=O)N2C2CCN(Cc3ccc(Cl)c(C)c3)CC2)cn1C` [Example 94], for which the inhibition at 1 µM amounted to 94% and affinity was put at a Ki of 52 nM.

For the compound `CCOC(=O)c1cc(NC(=O)[C@H]2CCC(=O)N2C2CCN(Cc3ccc(Cl)c(C)c3)CC2)nn1C` [Example 95], the inhibition at 1 µM was determined as 94% and the inhibitory constant (Ki) is 40 nM.

As to `COC(=O)c1ccc2c(c1)CCN(C(=O)[C@H]1CCC(=O)N1C1CCN(Cc3ccc(Cl)c(C)c3)CC1)C2` [Example 96], the inhibition at 1 µM was 51% and the affinity, expressed as Ki, was 670 nM.

Turning to `COC(=O)CC(NC(=O)[C@@H]1CCC(=O)N1C1CCN(Cc2ccc(Cl)c(C)c2)CC1)c1ccccn1` (stereo partly drawn) [Example 97], the inhibition at 1 µM was 50% and affinity was put at a Ki of 669 nM.

Take `CCOC(=O)Cc1csc(NC(=O)[C@H]2CCC(=O)N2C2CCN(Cc3ccc(Cl)c(C)c3)CC2)n1` [Example 98]: the inhibition at 1 µM was found to be 75% and affinity was put at a Ki of 202 nM.

In the case of `COC(=O)c1csc(NC(=O)[C@H]2CCC(=O)N2C2CCN(Cc3ccc(Cl)c(C)c3)CC2)n1` [Example 99], the inhibition at 1 µM is 91% and the Ki was determined as 67 nM.

Turning to `CCOC(=O)c1sc(NC(=O)[C@H]2CCC(=O)N2C2CCN(Cc3ccc(Cl)c(C)c3)CC2)nc1C` [Example 100], the inhibition at 1 µM came out at 100% and affinity was put at a Ki of 7 nM.

Regarding `Cc1cc(CN2CCC(N3C(=O)CC[C@@H]3C(=O)Nc3cc(-n4cccn4)ccn3)CC2)ccc1Cl` [Example 101], the inhibition at 1 µM amounted to 95% and the Ki came to 45 nM.

Regarding `Cc1cc(C)n(-c2ccnc(NC(=O)[C@H]3CCC(=O)N3C3CCN(Cc4ccc(Cl)c(C)c4)CC3)c2)n1` [Example 102], the inhibition at 1 µM stood at 100% and the affinity, expressed as Ki, was 19 nM.

With `Cc1cc(CN2CCC(N3C(=O)CC[C@@H]3C(=O)N(C)c3ccccn3)CC2)ccc1Cl` [Example 103], the inhibition at 1 µM came to 54% and the affinity, expressed as Ki, was 1400 nM.

As for `Cc1cc(CN2CCC(N3C(=O)CC[C@@H]3C(=O)N(C)c3ccccc3)CC2)ccc1Cl` [Example 104], the inhibition at 1 µM amounted to 24% and the Ki turned out to be 2400 nM.

On to `Cc1cc(CN2CCC(N3C(=O)CC[C@@H]3C(=O)Nc3cc(C(=O)N(C)C)cc(C(=O)N(C)C)c3)CC2)ccc1Cl` [Example 105], for which the inhibition at 1 µM is 99% and the Ki was determined as 5 nM.

In the case of `CNC(=O)c1cc(NC(=O)[C@H]2CCC(=O)N2C2CCN(Cc3ccc(Cl)c(C)c3)CC2)cc(C(=O)N(C)C)c1` [Example 106], the inhibition at 1 µM amounted to 100% and the Ki came to 3 nM.

Take `Cc1cc(CN2CCC(N3C(=O)CC[C@@H]3C(=O)Nc3cc(C(N)=O)cc(C(=O)N(C)C)c3)CC2)ccc1Cl` [Example 107]: the inhibition at 1 µM was 99% and the Ki is 13 nM.

Consider `COC(=O)c1cc(NC(=O)[C@H]2CCC(=O)N2C2CCN(Cc3ccc(Cl)c(C)c3)CC2)cc(C(=O)N(C)C)c1` [Example 108], for which the inhibition at 1 µM was 98% and the Ki was 4 nM.

For `Cc1cc(NC(=O)[C@H]2CCC(=O)N2C2CCN(Cc3ccc(Cl)c(C)c3)CC2)cc(-c2nnnn2C)c1` [Example 114], the inhibition at 1 µM was 99% and the affinity corresponds to a Ki of 4 nM.

For the compound `Cc1cc(C(=O)N(C)C)cc(NC(=O)[C@H]2CCC(=O)N2C2CCN(Cc3ccc(Cl)c(Cl)c3)CC2)n1` [Example 115], the inhibition at 1 µM was determined as 80% and affinity was put at a Ki of 18 nM.

In the case of `Cc1cc(CN2CCC(N3C(=O)OC[C@H]3C(=O)Nc3cccc(C#N)c3)CC2)ccc1Cl` [Example 116], the inhibition at 1 µM is 93% and the Ki was 47 nM.

Turning to `Cc1cc(CN2CCC(N3C(=O)OC[C@H]3C(=O)Nc3cc(C4CC4)nn3C)CC2)ccc1Cl` [Example 117], the inhibition at 1 µM came to 98% and the Ki was determined as 17 nM.

As to `Cc1cc(CN2CCC(N3C(=O)OC[C@H]3C(=O)Nc3ccc4ncsc4c3)CC2)ccc1Cl` [Example 118], the inhibition at 1 µM worked out at 94% and the affinity, expressed as Ki, was 40 nM.

On to `CNC(=O)c1cccc(NC(=O)[C@@H]2COC(=O)N2C2CCN(Cc3ccc(Cl)c(C)c3)CC2)c1` [Example 119], for which the inhibition at 1 µM stood at 87% and the Ki amounted to 81 nM.

For the compound `Cc1cc(CN2CCC(N3C(=O)N(C)C[C@@H]3C(=O)Nc3cccc(-c4ccncc4)c3)CC2)ccc1Cl` [Example 120], the inhibition at 1 µM worked out at 95% and the affinity corresponds to a Ki of 35 nM.

For the compound `Cc1cc(CN2CCC(N3C(=O)N(C)C[C@@H]3C(=O)Nc3cccc(-c4cscn4)c3)CC2)ccc1Cl` [Example 121], the inhibition at 1 µM was 98% and affinity was put at a Ki of 21 nM.

As to `CNc1nc(-c2cccc(NC(=O)[C@H]3CN(C)C(=O)N3C3CCN(Cc4ccc(Cl)c(C)c4)CC3)c2)no1` [Example 122], the inhibition at 1 µM came out at 95% and the inhibition constant (Ki) was determined as 30 nM.

For the compound `Cc1cc(CN2CCC(N3C(=O)N(C)C[C@@H]3C(=O)Nc3cccc(-c4cc[nH]n4)c3)CC2)ccc1Cl` [Example 123], the inhibition at 1 µM amounted to 95% and the Ki was found to be 34 nM.

On to `Cc1cc(CN2CCC(N3C(=O)N(C)C[C@H]3C(=O)Nc3cc(C(C)(C)C)no3)CC2)ccc1Cl` [Example 124], for which the inhibition at 1 µM was 93% and the inhibitory constant (Ki) was 41 nM.

As for `Cc1cc(CN2CCC(N3C(=O)N(C)C[C@H]3C(=O)Nc3cccc(-c4cscn4)c3)CC2)ccc1Cl` [Example 125], the inhibition at 1 µM amounted to 97% and the inhibition constant (Ki) was determined as 58 nM.

`Cc1cc(CN2CCC(N3C(=O)N(C)C[C@H]3C(=O)Nc3cccc(-c4nc[nH]n4)c3)CC2)ccc1Cl` [Example 126]: the inhibition at 1 µM turned out to be 89% and the Ki came to 71 nM.

As to `CNC(=O)c1cccc(NC(=O)[C@@H]2CN(C)C(=O)N2C2CCN(Cc3ccc(Cl)c(C)c3)CC2)c1` [Example 127], the inhibition at 1 µM was 90% and the affinity, expressed as Ki, was 81 nM.

For `CNc1nc(-c2cccc(NC(=O)[C@@H]3CN(C)C(=O)N3C3CCN(Cc4ccc(Cl)c(C)c4)CC3)c2)no1` [Example 128], the inhibition at 1 µM was determined as 87% and the Ki was 96 nM.

Regarding `Cc1cc(CN2CCC(N3C(=O)N(C)C[C@H]3C(=O)Nc3ccno3)CC2)ccc1Cl` [Example 129], the inhibition at 1 µM turned out to be 70% and the affinity corresponds to a Ki of 334 nM.

The values above are taken from patent US8653075B2, “Therapeutic methods employing substituted piperidines which are CCR3 antagonists” (Boehringer Ingelheim International GmbH, priority 2009, dated 2014).
